Ends that are not written are not given here.
Experiments:
PC12h cells = assay: c-AMP-producing activity: c-AMP secreted by PC12h cells, radioimmunoassay kit; assay type: cell-based, rat; conditions: sample added, 37° C. for 2 hours, c-AMP in culture solution, FIG. 1
Experimental: In the present invention, c-AMP producing activity was assayed by determining the amount of c-AMP secreted out of cells with a radioimmunoassay kit for measuring c-AMP, using subcultured cell PC12h of rat adrenal medulla origin.
Established cells derived from adrenal medullas, PC12h, were cultivated in Dulbecco's modified Eagle's medium containing 10% semi-fetal calf serum at 37° C. A 48-well collagen-treated plate was inoculated with 5×10^4 cells per well, and cultivation was conducted for 7 to 10 days. Then, the culture medium was exchanged for 500 μl of Hank's balanced salt solution, followed by standing at 37° C. for 30 minutes. A sample to be tested dissolved in the same solution was added thereto, and cultivation was conducted at 37° C. for 2 hours. Subsequently, the amount of c-AMP in this culture solution was assayed by using a kit for measuring c-AMP (Amersham Inc.).

[1] = system: neuronal cell death induced by the gp120 envelope glycoprotein of the AIDS virus; conditions: known property of VIP; cited from earlier work
[2] = background art; cited from earlier work

## vasoactive intestinal peptide (HSDAVFTDNYTRLRKQMAVKKYLNSILN; ends and bridges not checked; UniProt P01282 125-152, looked up) [VIP, 68% homology with PACAP-27-NH2]
PC12h cells
  c-AMP-producing activity: weak
[1]
  protection of neurons from cell death induced by gp120: capable of protecting neurons from cell death
[2]
  c-AMP-producing activity: very weak

From patent US5208320A, “Polypeptide having c-AMP-producing activity” (Takeda Chemical Industries, Ltd., priority 1990, dated 1993)
